The term IC50 denotes the concentration that gives 50% inhibition. Low values mean greater potency, high ones weaker potency.

Cyclin-dependent kinase 7, sequence (P50613 whole entry): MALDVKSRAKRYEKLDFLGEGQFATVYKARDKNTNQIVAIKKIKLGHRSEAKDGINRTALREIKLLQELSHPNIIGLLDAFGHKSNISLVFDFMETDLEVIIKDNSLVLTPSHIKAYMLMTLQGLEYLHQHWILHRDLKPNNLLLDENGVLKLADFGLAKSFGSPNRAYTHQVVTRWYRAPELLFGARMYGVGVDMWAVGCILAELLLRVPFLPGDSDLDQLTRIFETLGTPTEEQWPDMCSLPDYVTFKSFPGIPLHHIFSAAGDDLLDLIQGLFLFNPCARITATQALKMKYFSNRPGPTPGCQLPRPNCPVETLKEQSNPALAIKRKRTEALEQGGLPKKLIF
Cyclin-dependent kinase 1, sequence (P06493 whole entry): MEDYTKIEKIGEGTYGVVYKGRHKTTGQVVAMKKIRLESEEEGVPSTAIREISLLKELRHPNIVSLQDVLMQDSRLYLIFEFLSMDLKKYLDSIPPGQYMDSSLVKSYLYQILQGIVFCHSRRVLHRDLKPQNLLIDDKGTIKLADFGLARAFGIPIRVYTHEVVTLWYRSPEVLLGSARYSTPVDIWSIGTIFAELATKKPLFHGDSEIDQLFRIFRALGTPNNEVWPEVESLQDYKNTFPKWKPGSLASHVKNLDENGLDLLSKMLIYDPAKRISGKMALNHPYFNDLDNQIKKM
Cyclin-dependent kinase 4, sequence (P11802 whole entry): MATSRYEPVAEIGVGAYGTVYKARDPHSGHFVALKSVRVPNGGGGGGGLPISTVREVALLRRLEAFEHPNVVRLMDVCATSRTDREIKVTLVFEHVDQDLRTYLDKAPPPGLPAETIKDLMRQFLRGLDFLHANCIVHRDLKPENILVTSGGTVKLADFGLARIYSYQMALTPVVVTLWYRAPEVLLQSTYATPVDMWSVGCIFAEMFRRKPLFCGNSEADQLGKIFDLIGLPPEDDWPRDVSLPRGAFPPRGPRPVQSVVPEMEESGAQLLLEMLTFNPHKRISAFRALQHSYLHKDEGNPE

The target of one assay is Cyclin-dependent kinase 6 (Homo sapiens, UniProt Q00534). Put plainly: Inhibitory Effect Assay. The protocol: (§1) A compound dissolved in DMSO (50 nL) was transferred to the kinase reaction plate by using acoustic technology (Echo). 5 μL of a CDK kinase dilution solution was added to the kinase reaction plate and incubated at room temperature for 10 minutes after centrifugation. 5 μL of a substrate premix solution was added to the plate, and the final concentrations of the substrate and the ATP in each well were shown in Table 1. After centrifugation, the reaction was performed at 30° C. for 120 minutes.
Cyclin-dependent kinase 6, sequence (Q00534 whole entry): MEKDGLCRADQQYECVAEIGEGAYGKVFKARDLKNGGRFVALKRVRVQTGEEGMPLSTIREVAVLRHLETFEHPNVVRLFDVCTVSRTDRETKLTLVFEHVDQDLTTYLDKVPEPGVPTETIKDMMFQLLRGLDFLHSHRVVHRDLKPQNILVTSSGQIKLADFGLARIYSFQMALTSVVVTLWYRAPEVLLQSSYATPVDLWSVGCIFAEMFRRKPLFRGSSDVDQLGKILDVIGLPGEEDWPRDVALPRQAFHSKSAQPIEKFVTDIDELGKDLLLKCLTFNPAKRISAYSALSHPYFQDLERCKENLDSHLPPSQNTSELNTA
The compound `COc1cc(F)ccc1-c1cc(NC(=O)C2CCCC(NC(C)=O)C2)ncc1F` (configuration not stated) [US12570607, Example 3] had an IC50 of 1390 nM.
With `COc1cc(F)ccc1-c1cc(NC(=O)[C@H]2CCC[C@@H](NC(C)=O)C2)ncc1F` [US12570607, Example 5], the IC50 is 1120 nM.
`CC(=O)N[C@@H]1CCC[C@H](C(=O)Nc2cc(-c3ccc(F)cc3OC(C)C)c(F)cn2)C1` [US12570607, Example 8]: the IC50 turned out to be 1770 nM.
Compound `COc1ccccc1-c1cc(NC(=O)[C@H]2CCC[C@@H](NC(C)=O)C2)ncc1F` [US12570607, Example 17] yielded an IC50 of 3170 nM.
In turn, `CC(=O)N[C@@H]1CCC[C@H](C(=O)Nc2cc(-c3cccc4ccoc34)c(F)cn2)C1` [US12570607, Example 19] registered a half-maximal inhibitory concentration (IC50) of 297 nM.
Compound `COc1cc(F)ccc1-c1cc(NC(=O)[C@H]2CCC[C@@H](NS(C)(=O)=O)C2)ncc1F` [US12570607, Example 25] came in with an IC50 of 2360 nM.
Same read-out and setting: the figure for `COc1cc(F)ccc1-c1cc(NC(=O)[C@H]2CCC[C@@H](NC(=O)CC#N)C2)ncc1F` [US12570607, Example 32] is 2450 nM; for `COc1cc(F)ccc1-c1cc(NC(=O)[C@H]2CCC[C@@H](NC(=O)C3(C#N)CC3)C2)ncc1F` [US12570607, Example 33] it is 1760 nM.

In a further assay the target is Cyclin-dependent kinase 5 (Homo sapiens, UniProt Q00535). Put plainly: Inhibitory Effect Assay. As for the experimental part: as §1
Cyclin-dependent kinase 5, sequence (Q00535 whole entry): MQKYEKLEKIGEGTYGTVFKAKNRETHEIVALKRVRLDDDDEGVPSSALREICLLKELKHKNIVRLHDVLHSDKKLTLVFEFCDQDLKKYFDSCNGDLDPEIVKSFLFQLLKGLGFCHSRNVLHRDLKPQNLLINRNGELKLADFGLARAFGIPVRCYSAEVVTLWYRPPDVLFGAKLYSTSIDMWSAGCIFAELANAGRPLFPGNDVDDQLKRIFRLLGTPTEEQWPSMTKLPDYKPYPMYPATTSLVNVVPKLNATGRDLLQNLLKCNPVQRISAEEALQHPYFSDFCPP
For `COc1cc(F)ccc1-c1cc(NC(=O)C2CCCC(NC(C)=O)C2)ncc1F` (configuration not stated) [US12570607, Example 3], the IC50 was 721 nM.
The compound `CC(=O)N[C@@H]1CCC[C@H](C(=O)Nc2cc(-c3ccc(F)cc3OC(C)C)c(F)cn2)C1` [US12570607, Example 8] registered an IC50 of 614 nM.
Compound `COc1ccccc1-c1cc(NC(=O)[C@H]2CCC[C@@H](NC(C)=O)C2)ncc1F` [US12570607, Example 17] had an IC50 of 357 nM.
Compound `COc1cc(F)ccc1-c1cc(NC(=O)[C@H]2CCC[C@@H](NS(C)(=O)=O)C2)ncc1F` [US12570607, Example 25] showed an IC50 of 716 nM.
The compound `COc1cc(F)ccc1-c1cc(NC(=O)[C@H]2CCC[C@@H](NC(=O)CC#N)C2)ncc1F` [US12570607, Example 32] returned an IC50 of 329 nM.
Compound `COc1cc(F)ccc1-c1cc(NC(=O)[C@H]2CCC[C@@H](NC(=O)C3(C#N)CC3)C2)ncc1F` [US12570607, Example 33] came in with an IC50 of 168 nM.

The target of another assay is Cyclin-dependent kinase 1 (Homo sapiens, UniProt P06493). Put plainly: Inhibitory Effect Assay. As for the experimental part:
as §1
`COc1cc(F)ccc1-c1cc(NC(=O)C2CCCC(NC(C)=O)C2)ncc1F` (configuration not stated) [US12570607, Example 3] yielded an IC50 of 262 nM.
On to `CC(=O)N[C@@H]1CCC[C@H](C(=O)Nc2cc(-c3ccc(F)cc3OC(C)C)c(F)cn2)C1` [US12570607, Example 8], for which the IC50 worked out at 214 nM.
As to `COc1ccccc1-c1cc(NC(=O)[C@H]2CCC[C@@H](NC(C)=O)C2)ncc1F` [US12570607, Example 17], the IC50 turned out to be 193 nM.
In the case of `CC(=O)N[C@@H]1CCC[C@H](C(=O)Nc2cc(-c3cccc4ccoc34)c(F)cn2)C1` [US12570607, Example 19], inhibition was half-maximal at 87.1 nM (IC50).
In the case of `COc1cc(F)ccc1-c1cc(NC(=O)[C@H]2CCC[C@@H](NS(C)(=O)=O)C2)ncc1F` [US12570607, Example 25], the IC50 came out at 265 nM.
Take `COc1cc(F)ccc1-c1cc(NC(=O)[C@H]2CCC[C@@H](NC(=O)CC#N)C2)ncc1F` [US12570607, Example 32]: the midpoint of inhibition, the IC50, lay at 86.7 nM.
`COc1cc(F)ccc1-c1cc(NC(=O)[C@H]2CCC[C@@H](NC(=O)C3(C#N)CC3)C2)ncc1F` [US12570607, Example 33] yielded an IC50 of 78.8 nM.

The target in another assay is Cyclin-dependent kinase 2 (Homo sapiens, UniProt P24941). In words: Inhibitory Effect Assay. As for the experimental part: as §1
For `COc1cc(F)ccc1-c1cc(NC(=O)C2CCCC(NC(C)=O)C2)ncc1F` (configuration not stated) [US12570607, Example 3], the IC50 amounted to 2120 nM.
In turn, `COc1cc(F)ccc1-c1cc(NC(=O)[C@H]2CCC[C@@H](NC(C)=O)C2)ncc1F` [US12570607, Example 5] gave an IC50 of 475 nM.
Same read-out and setting: as for `CC(=O)N[C@@H]1CCC[C@H](C(=O)Nc2cc(-c3ccc(F)cc3OC(C)C)c(F)cn2)C1` [US12570607, Example 8], the figure is 991 nM; as for `COc1ccccc1-c1cc(NC(=O)[C@H]2CCC[C@@H](NC(C)=O)C2)ncc1F` [US12570607, Example 17], 1440 nM.
In the case of `CC(=O)N[C@@H]1CCC[C@H](C(=O)Nc2cc(-c3cccc4ccoc34)c(F)cn2)C1` [US12570607, Example 19], the IC50 was 638 nM.
On to `COc1cc(F)ccc1-c1cc(NC(=O)[C@H]2CCC[C@@H](NS(C)(=O)=O)C2)ncc1F` [US12570607, Example 25], for which the IC50 was 2050 nM.
For the compound `COc1cc(F)ccc1-c1cc(NC(=O)[C@H]2CCC[C@@H](NC(=O)CC#N)C2)ncc1F` [US12570607, Example 32], the IC50 turned out to be 1070 nM.
`COc1cc(F)ccc1-c1cc(NC(=O)[C@H]2CCC[C@@H](NC(=O)C3(C#N)CC3)C2)ncc1F` [US12570607, Example 33]: half-maximal inhibition (IC50) was put at 761 nM.

The target in the next assay is Cyclin-dependent kinase 9 (Homo sapiens, UniProt P50750). Put plainly: Inhibitory Effect Assay. As for the experimental part: as §1
Cyclin-dependent kinase 9, sequence (P50750 whole entry): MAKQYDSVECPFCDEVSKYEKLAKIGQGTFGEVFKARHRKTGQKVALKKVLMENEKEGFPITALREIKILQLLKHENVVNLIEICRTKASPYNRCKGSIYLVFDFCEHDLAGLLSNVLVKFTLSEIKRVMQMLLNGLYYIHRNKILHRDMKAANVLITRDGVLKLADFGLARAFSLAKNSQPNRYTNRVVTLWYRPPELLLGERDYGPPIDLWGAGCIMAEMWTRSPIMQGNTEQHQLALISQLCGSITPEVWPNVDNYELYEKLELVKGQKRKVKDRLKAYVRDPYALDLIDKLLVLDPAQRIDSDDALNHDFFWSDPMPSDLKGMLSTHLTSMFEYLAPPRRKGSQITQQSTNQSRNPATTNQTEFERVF
The compound `COc1cc(F)ccc1-c1cc(NC(=O)C2CCCC(NC(C)=O)C2)ncc1F` (configuration not stated) [US12570607, Example 3] showed an IC50 of 16.8 nM.
Compound `COc1cc(F)ccc1-c1cc(NC(=O)[C@H]2CCC[C@@H](NC(C)=O)C2)ncc1F` [US12570607, Example 5] displayed an IC50 of 7.9 nM.
In the case of `CC(=O)N[C@@H]1CCC[C@H](C(=O)Nc2cc(-c3ccc(F)cc3OC(C)C)c(F)cn2)C1` [US12570607, Example 8], the IC50 stood at 7.21 nM.
The compound `COc1ccccc1-c1cc(NC(=O)[C@H]2CCC[C@@H](NC(C)=O)C2)ncc1F` [US12570607, Example 17] came in with an IC50 of 7.12 nM.
Consider `CC(=O)N[C@@H]1CCC[C@H](C(=O)Nc2cc(-c3cccc4ccoc34)c(F)cn2)C1` [US12570607, Example 19], for which the IC50 was 7.65 nM.
The compound `COc1cc(F)ccc1-c1cc(NC(=O)[C@H]2CCC[C@@H](NS(C)(=O)=O)C2)ncc1F` [US12570607, Example 25] had an IC50 of 7.54 nM.
Regarding `COc1cc(F)ccc1-c1cc(NC(=O)[C@H]2CCC[C@@H](NC(=O)CC#N)C2)ncc1F` [US12570607, Example 32], the IC50 worked out at 6.86 nM.
`COc1cc(F)ccc1-c1cc(NC(=O)[C@H]2CCC[C@@H](NC(=O)C3(C#N)CC3)C2)ncc1F` [US12570607, Example 33] came in with an IC50 of 6.68 nM.

The target of the next assay is Cyclin-dependent kinase 7 (Homo sapiens, UniProt P50613). In words: Inhibitory Effect Assay. The protocol:
as §1
`COc1cc(F)ccc1-c1cc(NC(=O)C2CCCC(NC(C)=O)C2)ncc1F` (configuration not stated) [US12570607, Example 3] displayed an IC50 of 6210 nM.
For `COc1cc(F)ccc1-c1cc(NC(=O)[C@H]2CCC[C@@H](NC(C)=O)C2)ncc1F` [US12570607, Example 5], the IC50 came to 2750 nM.
`CC(=O)N[C@@H]1CCC[C@H](C(=O)Nc2cc(-c3ccc(F)cc3OC(C)C)c(F)cn2)C1` [US12570607, Example 8] registered an IC50 greater than 9900 nM.
In turn, `COc1ccccc1-c1cc(NC(=O)[C@H]2CCC[C@@H](NC(C)=O)C2)ncc1F` [US12570607, Example 17] had an IC50 of 5480 nM.
The same measure, in the same setting: as for `CC(=O)N[C@@H]1CCC[C@H](C(=O)Nc2cc(-c3cccc4ccoc34)c(F)cn2)C1` [US12570607, Example 19], the figure is 1170 nM; as for `COc1cc(F)ccc1-c1cc(NC(=O)[C@H]2CCC[C@@H](NS(C)(=O)=O)C2)ncc1F` [US12570607, Example 25], 4360 nM; as for `COc1cc(F)ccc1-c1cc(NC(=O)[C@H]2CCC[C@@H](NC(=O)CC#N)C2)ncc1F` [US12570607, Example 32], 1650 nM.
On the same count and under the same terms, the figure for `COc1cc(F)ccc1-c1cc(NC(=O)[C@H]2CCC[C@@H](NC(=O)C3(C#N)CC3)C2)ncc1F` [US12570607, Example 33] is 1260 nM.

For another assay, the target named is Cyclin-dependent kinase 4 (Homo sapiens, UniProt P11802). Put plainly: Inhibitory Effect Assay. As for the experimental part:
as §1
The compound `COc1cc(F)ccc1-c1cc(NC(=O)[C@H]2CCC[C@@H](NC(C)=O)C2)ncc1F` [US12570607, Example 5] gave an IC50 of 429 nM.
`CC(=O)N[C@@H]1CCC[C@H](C(=O)Nc2cc(-c3ccc(F)cc3OC(C)C)c(F)cn2)C1` [US12570607, Example 8]: the IC50 came out at 273 nM.
As to `COc1ccccc1-c1cc(NC(=O)[C@H]2CCC[C@@H](NC(C)=O)C2)ncc1F` [US12570607, Example 17], it took 474 nM to reach half-maximal inhibition (IC50).
As for `CC(=O)N[C@@H]1CCC[C@H](C(=O)Nc2cc(-c3cccc4ccoc34)c(F)cn2)C1` [US12570607, Example 19], the IC50 is 196 nM.
In turn, `COc1cc(F)ccc1-c1cc(NC(=O)[C@H]2CCC[C@@H](NS(C)(=O)=O)C2)ncc1F` [US12570607, Example 25] showed an IC50 of 811 nM.
In turn, `COc1cc(F)ccc1-c1cc(NC(=O)[C@H]2CCC[C@@H](NC(=O)CC#N)C2)ncc1F` [US12570607, Example 32] gave a 50% inhibitory concentration (IC50) of 353 nM.
As for `COc1cc(F)ccc1-c1cc(NC(=O)[C@H]2CCC[C@@H](NC(=O)C3(C#N)CC3)C2)ncc1F` [US12570607, Example 33], the IC50 was 395 nM.

(Values after BindingDB's records for patent US12570607 (CSPC Zhongqi Pharmaceutical Technology (Shijiazhuang) Co., 2026).)
